Data as given in patent US20020028809A1 (SUNTORY LIMITED, priority 1999, published 2002).
Read-outs that look alike come from different tables or passages of the source.

Assays:
[1] = molecular target: T1, α4β2 subtype of nicotinic acetylcholine receptors (Rattus norvegicus, UniProt P09483+P12390); experiment: Binding assays at α4β2 subtype of nicotinic acetylcholine receptors ([3H]-cytisine, rat brain membrane)
T1 construct: examined using rat brain membrane obtained from whole homogenized brain; from tissue; host or cells: whole brain of Fischer-344 male rats, membrane pellet
Text: (§1) Methods for evaluating binding capabilities of the compounds at nicotinic acetylcholine receptors are different by subtypes of receptors. Binding capabilities of the compounds at α4β2 nicotinic acetylcholine receptors are examined using rat brain membrane obtained from whole homogenized brain, and determining the inhibiting rate of the compounds against [^3H]-cytisine binding to said brain membrane. Furthermore, the binding capabilities of the compounds at α1β1γδ nicotinic acetylcholine receptors are examined using homogenized rat muscle, and determining the inhibiting rate of the compounds against [^3H]-α-bungarotoxin binding to said muscle homogenate.
Binding assays at α4β2 Subtype of Nicotinic Acetylcholine Receptors
(1) Preparation of Rat Brain Membrane Containing α4β2 Subtype of Nicotinic Acetylcholine Receptors
Rats were housed in the breeding cage controlled of the room temperature at 23±1° C., and the humidity of 55±5% for 1 to 4 weeks. Rats (3 to 4 rats per a cage) were housed with lights on for 12 hours daily (from 7:00 to 19:00), and allowed free access to food and water.
Preparation of rat brain membrane containing α4β2 subtype of nicotinic acetylcholine receptors was performed as follow. That is, rat brains were isolated just after sacrificed by decapitation, washed with ice-cooled saline solution and then frozen at −80° C. with liquid nitrogen and stored till using. After thawing the frozen brain, the brain was homogenized in 10 volumes of ice-cooled buffer solution (50 mM of Tris-HCl, 120 mM of NaCl, 5 mM of KCl, 1 mM of MgCl2, 2mM of CaCl2; pH 7.4; 4° C.) using homogenizer (HG30, Hitachi Kohki Ltd.) for 30 seconds, and the homogenate were centrifuged under 1,000×G for 10 minutes at 4° C. The resulting supernatant was separated and the pellet was homogenized again with half volume of aforementioned prior buffer solution and centrifuged under the same conditions. Combined supernatant was further centrifuged under 40,000×G for 20 minutes at 4° C. The pellet was suspended in buffer solution and used for binding assays at receptors.
(2) Experiments of α4β2 Subtype of Nicotinic Acetylcholine Receptors Binding
Suspensions of membrane pellets containing 400-600 μg of protein were added to test tubes containing test compounds and [^3H]-cytisine (2 nM) in a final volume of 200 μl and incubated for 75 minutes in ice-cooled bath. The samples were isolated by vacuum filtration onto Whatman GF/B filters, which were prerinsed with 0.5% polyethylenimine just prior to sample filtration, using Brandel multi manifold cell harvester. The filters were rapidly washed with buffer solution (3×1 ml). The filters were counted in 3 ml of clearsol I (Nacalai Tesque Inc.).
Analyses of the experimental results were conducted using the Accufit Competition Program (Beckman Ltd.).

[2] = molecular target: T2, α1β1γδ subtype of nicotinic acetylcholine receptors (Rattus norvegicus, UniProt P18916+P25108+P25109+P25110); experiment: Binding assays at α1β1γδ subtype of nicotinic acetylcholine receptors ([3H]-α-bungarotoxin, rat muscle extract); conditions: for remaining activity at 100 µM / remaining activity at 1000 µM: read-out: control % of [3H]-α-Bgt binding
T2 construct: Native receptor, no construct: "Triton X100 (2% w/v) was added
Text: as §1
Binding Assays at α1β1γδ Subtype of Nicotinic Acetylcholine Receptors
Affinity of the compounds of the present invention to α1βγδ subtype of nicotinic acetylcholine receptors was measured by the following method, which was modified method described by Garcha H. S., Thomas P., Spivak C.
(1) Preparation of Rat Skeletal Muscles Containing α1β1γδ Subtype of Nicotinic Acetylcholine Receptors
The substantially same animals described in the Biological Experiment 1 were used.
Isolation of α1β1γδ subtype of nicotinic acetylcholine receptors was performed as follow. That is, rat posterior skeletal muscles were isolated just after sacrificed by decapitation, washed with ice-cooled saline solution and then frozen at −80° C. with liquid nitrogen and stored till using. After thawing the frozen muscles, tissue was homogenized (40% w/v) with buffer solution [2.5 mM of sodium phosphate buffer (pH:7.2), 90 mM of NaCl, 2 mM of KCl, 1 mM of EDTA, 2 mM of benzamidine, 0.1 mM of benzethonium chloride, […], 0.01% of sodium azide] in Waring blender (Waring blender 34BL97; WARING PRODUCTS DIVISION DYNAMICS CORPORATION OF AMERICA) for 60 seconds. The homogenate were centrifuged under 20,000×G for 60 minutes at 4° C. The supernatant was separated and the resulting pellet was added to the same buffer (1.5 ml/g wet weight), and homogenized under the same conditions. Triton X100 (2% w/v) was added and the mixture was stirred for 3 hours at 4° C. The centrifugation at 100,000×G for 60 minutes at 4° C. yielded the rat muscle extract as supernatant. This was stored at 4° C. for up to 4 weeks, and used for binding assays at receptors.
(2) Experiments of α1β1γδSubtype of Nicotinic Acetylcholine Receptors Binding
Receptors binding experiments were performed as follow. That is, the extract of rat muscle containing 600-900 μg of protein was added to test tubes containing test compounds and incubated for 15 minutes at 37° C. Then, to this mixture was added 1 nM of [^3H]-α-bungarotoxin (α-Bgt) and further incubated for 2 hours. The samples were isolated by vacuum filtration onto Whatman GF/B filters, which were prerinsed with 0.5% polyethylenimine just prior to sample filtration, using Brandel multi manifold cell harvester. The filters were rapidly rinsed with washing solution (10 mM of KH2PO4, 150 mM of NaCl, pH 7.2, room temperature) (5×1 ml). The filters were counted in 3 ml of clearsol I (Nacalai Tesque Inc.). Determination of nonspecific binding was incubated in the presence of 1 μM α-Bgt.
In the receptor binding experiments, said buffer solution was added for adjusting the final concentration of BSA to be 0.05%.
Analyses of the experimental results were conducted by the same way as described in the Biological Experiment 1.

[3] = at 1 μM of test compound, rat brain membrane
[4] = at 10 μM of test compound, rat brain membrane
[5] = rat brain membrane, [3H]-cytisine (2 nM), read-out: Affinities for receptors Ki α4β2

T2 sequence (P25108 21-457): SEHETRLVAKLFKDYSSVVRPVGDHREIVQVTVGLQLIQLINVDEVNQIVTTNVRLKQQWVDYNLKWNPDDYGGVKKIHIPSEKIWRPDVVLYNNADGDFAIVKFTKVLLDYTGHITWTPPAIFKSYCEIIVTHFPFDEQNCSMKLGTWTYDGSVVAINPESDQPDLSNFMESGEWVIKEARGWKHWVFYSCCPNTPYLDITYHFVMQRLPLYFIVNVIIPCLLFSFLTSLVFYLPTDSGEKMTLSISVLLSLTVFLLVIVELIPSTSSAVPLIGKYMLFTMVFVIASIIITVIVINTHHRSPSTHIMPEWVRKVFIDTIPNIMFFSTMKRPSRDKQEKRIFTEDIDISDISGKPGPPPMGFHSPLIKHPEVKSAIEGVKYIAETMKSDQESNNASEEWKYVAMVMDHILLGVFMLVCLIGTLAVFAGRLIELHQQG
T2 sequence (P25110 22-517): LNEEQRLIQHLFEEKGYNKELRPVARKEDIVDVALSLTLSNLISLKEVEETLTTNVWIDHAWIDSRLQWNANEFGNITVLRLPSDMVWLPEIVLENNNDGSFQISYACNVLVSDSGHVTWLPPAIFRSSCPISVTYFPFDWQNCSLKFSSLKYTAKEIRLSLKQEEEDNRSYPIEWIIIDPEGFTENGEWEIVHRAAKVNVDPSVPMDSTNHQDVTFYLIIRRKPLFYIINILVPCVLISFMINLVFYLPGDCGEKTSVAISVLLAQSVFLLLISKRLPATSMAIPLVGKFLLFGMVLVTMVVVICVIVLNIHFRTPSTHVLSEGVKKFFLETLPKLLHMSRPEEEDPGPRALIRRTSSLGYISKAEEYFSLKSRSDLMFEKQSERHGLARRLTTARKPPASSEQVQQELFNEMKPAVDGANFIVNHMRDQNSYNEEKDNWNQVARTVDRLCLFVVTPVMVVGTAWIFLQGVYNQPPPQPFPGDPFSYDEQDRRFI
T2 sequence (P25109 24-501): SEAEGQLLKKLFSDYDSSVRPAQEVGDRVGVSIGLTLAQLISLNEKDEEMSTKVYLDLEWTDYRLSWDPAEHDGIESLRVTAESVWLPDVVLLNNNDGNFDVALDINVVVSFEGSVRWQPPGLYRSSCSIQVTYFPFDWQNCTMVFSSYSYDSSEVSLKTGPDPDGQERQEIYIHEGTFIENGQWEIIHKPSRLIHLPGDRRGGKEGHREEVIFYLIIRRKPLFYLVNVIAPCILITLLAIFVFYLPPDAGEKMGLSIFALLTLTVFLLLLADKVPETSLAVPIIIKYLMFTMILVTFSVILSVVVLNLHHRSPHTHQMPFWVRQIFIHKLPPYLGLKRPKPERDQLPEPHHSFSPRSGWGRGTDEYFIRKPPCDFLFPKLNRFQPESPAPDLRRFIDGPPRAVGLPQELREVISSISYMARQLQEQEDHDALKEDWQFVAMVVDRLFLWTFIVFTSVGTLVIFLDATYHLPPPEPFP
T1 sequence (P09483 31-630): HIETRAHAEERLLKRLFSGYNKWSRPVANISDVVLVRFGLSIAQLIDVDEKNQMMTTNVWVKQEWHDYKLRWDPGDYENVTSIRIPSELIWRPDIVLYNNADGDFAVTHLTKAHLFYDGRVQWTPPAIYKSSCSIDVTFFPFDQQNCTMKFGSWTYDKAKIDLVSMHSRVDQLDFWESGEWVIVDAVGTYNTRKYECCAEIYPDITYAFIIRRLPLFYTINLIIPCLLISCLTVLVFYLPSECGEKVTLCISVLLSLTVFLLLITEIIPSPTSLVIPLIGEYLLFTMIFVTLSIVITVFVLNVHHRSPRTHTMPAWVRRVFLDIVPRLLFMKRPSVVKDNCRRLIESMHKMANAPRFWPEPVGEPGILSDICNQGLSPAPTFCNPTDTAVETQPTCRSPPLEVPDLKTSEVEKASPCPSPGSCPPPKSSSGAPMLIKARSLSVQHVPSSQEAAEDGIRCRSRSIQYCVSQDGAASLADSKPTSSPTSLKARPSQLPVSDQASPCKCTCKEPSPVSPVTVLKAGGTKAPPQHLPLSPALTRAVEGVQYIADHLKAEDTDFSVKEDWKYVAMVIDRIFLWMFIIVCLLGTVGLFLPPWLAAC
T1 sequence (P12390 25-500): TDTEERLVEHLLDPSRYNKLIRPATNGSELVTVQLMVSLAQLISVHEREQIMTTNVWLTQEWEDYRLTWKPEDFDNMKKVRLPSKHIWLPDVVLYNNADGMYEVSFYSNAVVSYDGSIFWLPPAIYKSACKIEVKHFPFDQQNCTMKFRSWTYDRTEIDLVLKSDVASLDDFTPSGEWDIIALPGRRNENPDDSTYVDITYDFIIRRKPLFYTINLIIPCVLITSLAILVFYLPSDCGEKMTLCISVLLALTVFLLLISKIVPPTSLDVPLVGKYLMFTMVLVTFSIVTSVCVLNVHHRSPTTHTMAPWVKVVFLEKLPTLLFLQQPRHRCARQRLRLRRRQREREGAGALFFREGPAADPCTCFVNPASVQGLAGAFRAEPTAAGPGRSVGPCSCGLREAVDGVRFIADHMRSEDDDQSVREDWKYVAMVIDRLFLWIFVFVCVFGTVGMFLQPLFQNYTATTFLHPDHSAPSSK

| Compound | Ki [1] | Ki [2] | control % of [3H]-cytisine binding [1, 3] | control % of [3H]-cytisine binding [1, 4] | remaining activity at 100 µM [2] | remaining activity at 1000 µM [2] | Ki [1, 5] |
| --- | --- | --- | --- | --- | --- | --- | --- |
| N=C1SCC(c2ccccc2)N1Cc1ccc(Cl)nc1 (centres unmarked) [Compound 43, 3-(6-chloro-3-pyridyl)methyl-2-imino-4-phenylthiazolidine] | 37.1 nM | 19900 nM | – | – | – | – | – |
| Cc1csc(=N)n1Cc1cnc(Cl)s1 [Compound 37, 3-(2-chloro-5-thiazolyl)methyl-2-imino-4-methyl-2,3-dihydrothiazole] | 16.4 nM | 22900 nM | – | – | – | – | – |
| N=c1ccccn1Cc1cccnc1 [Compound 26, 2-imino-1-(3-pyridyl)methyl-1,2-dihydropyridine] | 28.2 nM | 41600 nM | – | – | – | – | – |
| N=C1SCCN1Cc1cccnn1 [Compound 49, 2-imino-3-(3-pyridazinyl)methylthiazolidine] | – | – | (62%, | 16%) | 18% | 14% | – |
| Cc1sc(=N)n(Cc2ccc(Cl)nc2)c1C [Compound 20, 3-(6-chloro-3-pyridyl)methyl-2-imino-4,5-dimethyl-2,3-dihydrothiazole] | 7.56 nM | – | – | – | 96% | 45% | – |
| N=c1sccn1Cc1ccc(Cl)c(Cl)c1 [Compound 60, 3-(3,4-dichlorobenzyl)-2-imino-2,3-dihydrothiazole] | 31.9 nM | 61300 nM | – | – | – | – | – |
| N=c1ccc(-c2ccccc2)nn1Cc1cccnc1 [Compound 45, 3-imino-6-phenyl-2-(3-pyridyl)methyl-2,3-dihydropyridazine] | 143 nM | – | – | – | 18% | 6% | – |
| Cc1csc(=N)n1Cc1cnc(Cl)c(Cl)c1 [Compound 38, 3-(5,6-dichloro-3-pyridyl)methyl-2-imino-4-methyl-2,3-dihydrothiazole] | 10.6 nM | 65200 nM | – | – | – | – | – |
| N=C1SCCCN1Cc1ccc(Cl)nc1 [Compound 17, 3-(6-chloro-3-pyridyl)methyl-2-imino-3,4,5,6-tetrahydro-2H-1,3-thiazine] | – | – | – | – | 68% | 23% | 520 nM |
| Cc1ccc(CN2CCSC2=N)cn1 [Compound 32, 2-imino-3-(6-methyl-3-pyridyl)methylthiazolidine] | 10 nM | 14600 nM | – | – | – | – | – |
| Cc1csc(=N)n1Cc1ccc(Cl)nc1 [Compound 2, 3-(6-chloro-3-pyridyl)methyl-2-imino-4-methyl-2,3-dihydrothiazole] | 3.5 nM | 12800 nM | – | – | – | – | – |
| Cc1csc(=N)n1Cc1ccc(F)nc1 [Compound 18, 3-(6-fluoro-3-pyridyl)methyl-2-imino-4-methyl-2,3-dihydrothiazole] | 10.8 nM | 5800 nM | – | – | – | – | – |
| N=c1sccn1Cc1cccc([N+](=O)[O-])c1 [Compound 61, 2-imino-3-(3-nitrobenzyl)-2,3-dihydrothiazole] | 65.4 nM | 219000 nM | – | – | – | – | – |
| Cc1ccc(=N)n(Cc2ccc(Cl)nc2)c1 [Compound 24, 1-(6-chloro-3-pyridyl)methyl-2-imino-5-methyl-1,2-dihydropyridine] | 48.6 nM | – | – | – | 80% | 36% | – |
| N#Cc1ccc(Cn2ccsc2=N)cc1 [Compound 65, 3-(4-cyanobenzyl)-2-imino-2,3-dihydrothiazole] | 181 nM | 311000 nM | – | – | – | – | – |
| N=c1scc(-c2ccc(Cl)cc2)n1Cc1ccc(Cl)nc1 [Compound 42, 4-(4-chlorophenyl)-3-(6-chloro-3-pyridyl)methyl-2-imino-2,3-dihydrothiazole] | 290 nM | – | – | – | 75% | 35% | – |
| N=C1CCCCN1Cc1ccc(Cl)nc1 [Compound 15, 1-(6-chloro-3-pyridyl)methyl-2-iminopiperidine] | – | – | – | – | 21% | 4% | 4.8 nM |
| Cc1ccc(Cn2ccsc2=N)cc1 [Compound 63, 2-imino-3-(4-methylbenzyl)-2,3-dihydrothiazole] | – | 364000 nM | – | – | – | – | 160 nM |
| Cc1nc(N)n(Cc2ccc(Cl)nc2)c1C [Compound 51, 2-amino-1-(6-chloro-3-pyridyl)methyl-4,5-dimethylimidazole] | – | – | (96% | 33%) | 103% | 53% | – |
| Cc1cn(Cc2ccc(Cl)nc2)c(=N)s1 [Compound 3, 3-(6-chloro-3-pyridyl)methyl-2-imino-5-methyl-2,3-dihydrothiazole] | 5.8 nM | – | – | – | 69% | 28% | – |
| Cc1ccc(Cn2c(C)csc2=N)cn1 [Compound 39, 2-imino-4-methyl-3-(6-methyl-3-pyridyl)methyl-2,3-dihydrothiazole] | 30.5 nM | 10800 nM | – | – | – | – | – |
| Cc1cccn(Cc2ccc(Cl)nc2)c1=N [Compound 23, 1-(6-chloro-3-pyridyl)methyl-2-imino-3-methyl-1,2-dihydropyridine] | 221 nM | – | – | – | 89% | 52% | – |
| N=c1sccn1Cc1cccc(C(F)(F)F)c1 [Compound 64, 2-imino-3-(3-trifluoromethylbenzyl)-2,3-dihydrothiazole] | – | – | (60%, | 15%) | 77% | 23% | – |
| Nc1nccn1Cc1cnc(Cl)c(Cl)c1 [Compound 54, 2-amino-1-(5,6-dichloro-3-pyridyl)methylimidazole] | 9.72 nM | – | – | – | 113% | 52% | – |
| N=c1scc(-c2ccccc2)n1Cc1ccc(Cl)nc1 [Compound 41, 3-(6-chloro-3-pyridyl)methyl-2-imino-4-phenyl-2,3-dihydrothiazole] | 32 nM | – | – | – | 79% | 30% | – |
| Nc1nccn1Cc1cncnc1 [Compound 52, 2-amino-1-(5-pyrimidyl)methylimidazole] | 24.9 nM | 302000 nM | – | – | – | – | – |
| Cc1csc(=N)n1Cc1cncc(Br)c1 [Compound 30, 3-(5-bromo-3-pyridyl)methyl-2-imino-4-methyl-2,3-dihydrothiazole] | 26.7 nM | 22500 nM | – | – | – | – | – |
| CN1CCCC1c1cccnc1 (single isomer, unassigned; (-)) [Nicotine, (−)-nicotine, reference compound] | – | 182000 nM | – | – | – | – | – |
